Results as given in US5212165A, “Method for rehabilitating the vasorelaxant action of the coronary arteries impaired through atherosclerosis or hypercholesterolemia employing an ACE inhibitor” (E. R. Squibb & Sons, Inc., priority 1989, dated 1993).
Entries after “also recorded” stand apart in the source; their conditions may differ.

System: phenylephrine-contracted isolated iliac arteries
Assay: Acetylcholine-induced relaxation of phenylephrine-contracted isolated iliac arteries from cynomolgus monkeys
Parameters: species or system cynomolgus (Macaca fascicularis) monkeys
Settings: for maximum force generated in response to phenylephrine (before acetylcholine): mean±SEM
Source text: Twenty-four male cynomolgus (Macaca fascicularis) monkeys were divided into four groups of six animals each. During the course of the study, one of the control monkeys was sacrificed due to ill health unrelated to the study. Each group was fed a different diet for six months. The control group ate a normal diet of monkey biscuit. The cholesterol group ate a specially formulated monkey diet containing cholesterol. The cholesterol +low captopril group ate the cholesterol diet supplemented with captopril (50 mg/kg divided into two daily doses). The cholesterol+high captopril group ate the cholesterol diet and a higher total dose of captopril (100 mg/kg divided into two daily doses).
The monkeys were sedated with an intramuscular injection of ketamine (10 mg/kg), then anesthetized with pentobarbital (25 mg/kg). The iliac arteries were carefully dissected, cleaned of surrounding connective tissue, and refrigerated overnight for use the following day.
On the day of the experiment, three iliac rings (3 mm wide) from each animal were cut and mounted for isometric force recording. Each ring was attached to a micrometer for the control of muscle length and to a Grass FT.03 force transducer and Grass 7D recorder. The rings were placed in warm (37° C.), oxygenated, physiological salt solution (PSS) of the following composition (in mM): 140.0 NaCl, 4.7 KCl, 1.2 MgSO4, 1.6 CaCl2, 1.2 NaH2 PO4, 5.6 D-glucose, 2.0 2-(N-morpholino)propanesulfonic acid (MOPS, pH 7.4 at 37° C.), and 0.02 Na2 -ethylenediaminetetraacetic acid (EDTA). The rings were stretched to a preload of 5 g during a 2 hour equilibration period, then stimulated with 1 μM phenylephrine to test for viability and relaxed with 100 nM acetylcholine to test for endothelial function. Stock solutions of phenylphrine, acetylcholine, propranolol, and sodium nitroprusside were prepared daily in water; nifedipine stock solutions were prepared daily in ethanol.
Alpha-adrenoceptor and endothelial cell function were examined in the third ring from each monkey. In the presence of 0.1 μM propranolol, a cumulative concentration-response curve to phenylephrine was obtained, then the phenylephrine was washed out of the baths and the rings were allowed to relax completely. The rings were subsequently contracted with an EC50 concentration of phenylephrine (1 μM) and, following stabilization of the contraction, the rings were treated with increasing concentrations of acetylcholine, followed by 100 nM sodium nitroprusside.
Data are presented as mean±SEM. The IC50 and EC50 values were estimated by linearly interpolating from the concentration-response curves. The EC50 values for each ring were used to determine the means for each treatment group.
For each monkey, the EC50 for acetylcholine relaxation was calculated by linearly interpolating from the concentration-response curves. When 50% relaxation was not achieved, the value of the EC50 was set to 30 μM a value larger than any of the experimental concentrations of acetylcholine).
Linear contrast of mean ranks in the groups were constructed with a variance estimate for the contrast based on the Kruskal-Wallis statistic (Dunn 1964).
In the analyses, the following coefficients were employed: i) for an overall test, the coefficients were 3 for the cholesterol group, 1 for the control group, -1 for the cholesterol+low captopril group, and -3 for the cholesterol+high captopril group, based on prior expectations of likely results; ii) for a test of the cholesterol effect, the coefficients were 1 for the cholesterol group, -1 for the control group, 0 for the cholestrol+low captopril group, and 0 for the cholesterol+high captopril group; iii) for a test of the captopril effect, the coefficients were 0 for the cholesterol group, 1 for the […], 0 for the cholesterol+low captopril group, and -1 for the cholesterol+high captopril group.
All statistical results reported are based on one-sided tests. […]

Structure (SMILES): C[C@H](CS)C(=O)N1CCC[C@H]1C(=O)O [captopril, 1-[(2S)-3-mercapto-2-methylpropionyl]-L-proline]
- EC50 at 100 mg/kg (Macaca fascicularis, Cholesterol + High Captopril (100 mg/kg daily, six months), N 5, non-responder excluded, Mean ± SEM): 100 ± 10 nM
- endothelium-dependent vasorelaxant effects (arteries from hypercholesterolemic and atherosclerotic monkeys): enhance endothelium-dependent vasorelaxant effects
- shift of EC50 concentration for acetylcholine (captopril as compared with cholesterol alone): statistically significant effect of captopril as compared with cholesterol; also recorded: significantly shifted the EC50 concentration for acetylcholine to the left
- rings not showing 50% relaxation in response to acetylcholine (cholesterol diet and low dose captopril): One ring did not show 50% relaxation
- iliac rings responsive to acetylcholine (cholesterol fed, high daily dose of captopril, six animals): Five of the iliac rings
- maximum force generated in response to phenylephrine (before acetylcholine) (cholesterol+high captopril group, non-responders excluded): 11.9 ± 2.1 g
- maximum force generated in response to phenylephrine (before acetylcholine) (cholesterol+low captopril group): 12.4 ± 2.2 g
- potency and efficacy of acetylcholine in iliac rings from cholesterol-fed monkeys which received captopril (vs cholesterol diet without captopril): significantly more potent and efficacious
